# According to patent US11390616B2 (BRISTOL-MYERS SQUIBB COMPANY, priority 2015, dated 2022):
# Biological target: T1, human APJ receptor (Homo sapiens, UniProt P35414)
# T1 construct: expressed in transfected cells; host or cells: HEK293
# T1 sequence (P35414 1-380): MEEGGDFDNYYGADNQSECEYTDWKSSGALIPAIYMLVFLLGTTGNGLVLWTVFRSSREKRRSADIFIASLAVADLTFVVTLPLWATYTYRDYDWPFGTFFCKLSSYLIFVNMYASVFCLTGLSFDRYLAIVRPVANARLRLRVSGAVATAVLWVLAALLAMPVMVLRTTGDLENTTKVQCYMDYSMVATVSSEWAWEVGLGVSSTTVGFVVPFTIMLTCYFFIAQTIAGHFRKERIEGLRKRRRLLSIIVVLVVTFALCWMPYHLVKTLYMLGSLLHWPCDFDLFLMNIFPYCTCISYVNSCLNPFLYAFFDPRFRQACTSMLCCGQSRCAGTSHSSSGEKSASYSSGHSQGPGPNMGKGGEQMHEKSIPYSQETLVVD
# Experiment: Intracellular cAMP accumulation assay (APJ hcAMP, HTRF)
# Type: cell-based
# Settings: HEK293 cells stably expressing human APJ receptor; inhibition of forskolin-mediated cAMP production; read-out: APJ cAMP Potency range
# Procedure, shortened: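 Inhibition of forskolin (2 μM)-driven cAMP, with […], measured by HTRF after 30 min room-temperature compound exposure of stably transfected HEK293 cells. cAMP read from a standard curve; variable-slope fit gives EC50, and maximal inhibition is normalised to (Pyr1)apelin-13 as 100%.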
row,Structure (SMILES),EC50
1,"CCc1cccc(CC)c1-n1c(-c2nc(C)cs2)nc(=O)c(Cc2ccc(-c3ccc(F)nc3C)c(F)c2)c1O [Example 79, 1-(2,6-diethylphenyl)-5-{[3-fluoro-4-(6-fluoro-2-methylpyridin-3-yl)phenyl]methyl}-6-hydroxy-2-(4-methyl-1,3-thiazol-2-yl)-1,4-dihydropyrimidin-4-one]",0.01 to 10 nM
2,"CCc1cccc(CC)c1-n1c(-c2ccn(CC)n2)nc(=O)c(Cc2ccc(-c3ccc(F)nc3C)c(F)c2)c1O [Example 80, 1-(2,6-diethylphenyl)-2-(1-ethyl-1H-pyrazol-3-yl)-5-{[3-fluoro-4-(6-fluoro-2-methylpyridin-3-yl)phenyl]methyl}-6-hydroxy-1,4-dihydropyrimidin-4-one]",0.01 to 10 nM
3,"CCc1cccc(CC)c1-n1c(-c2nc(C)cs2)nc(=O)c(Cc2ccc(-c3ccc(F)cc3C(N)=O)c(F)c2)c1O [Example 82, 4′-{[1-(2,6-diethylphenyl)-6-hydroxy-2-(4-methyl-1,3-thiazol-2-yl)-4-oxo-1,4-dihydropyrimidin-5-yl]methyl}-2′,4-difluoro-[1,1′-biphenyl]-2-carboxamide]",0.01 to 10 nM
4,"CCc1cccc(CC)c1-n1c(-c2nc(C)cs2)nc(=O)c(Cc2ccc(-c3cccn(C)c3=O)c(F)c2)c1O [Example 83, 1-(2,6-diethylphenyl)-5-{[3-fluoro-4-(1-methyl-2-oxo-1,2-dihydropyridin-3-yl)phenyl]methyl}-6-hydroxy-2-(4-methyl-1,3-thiazol-2-yl)-1,4-dihydropyrimidin-4-one]",0.01 to 10 nM
5,"CCc1cccc(CC)c1-n1c(-c2ccn(C(C)C)n2)nc(=O)c(Cc2ccc(-c3ccc(F)cc3C(N)=O)c(F)c2)c1O [Example 84, 4′-{[1-(2,6-diethylphenyl)-6-hydroxy-4-oxo-2-[1-(propan-2-yl)-1H-pyrazol-3-yl]-1,4-dihydropyrimidin-5-yl]methyl}-2′,4-difluoro-[1,1′-biphenyl]-2-carboxamide]",0.01 to 10 nM
6,"CCc1cccc(CC)c1-n1c(-c2ccn(C(C)C)n2)nc(=O)c(Cc2ccc(-c3ccnc(F)c3C)c(F)c2)c1O [Example 85, 1-(2,6-diethylphenyl)-5-{[3-fluoro-4-(2-fluoro-3-methylpyridin-4-yl)phenyl]methyl}-6-hydroxy-2-[1-(propan-2-yl)-1H-pyrazol-3-yl]-1,4-dihydropyrimidin-4-one]",0.01 to 10 nM
7,"CCc1cccc(CC)c1-n1c(-c2ccn(C)n2)nc(=O)c(Cc2ccc(-c3ccnc(F)c3C)cc2F)c1O [Example 86, 1-(2,6-diethylphenyl)-5-{[2-fluoro-4-(2-fluoro-3-methylpyridin-4-yl)phenyl]methyl}-6-hydroxy-2-(1-methyl-1H-pyrazol-3-yl)-1,4-dihydropyrimidin-4-one]",0.01 to 10 nM
8,"CCc1cccc(CC)c1-n1c(-c2ccn(C(C)C)n2)nc(=O)c(Cc2ccc(-c3cccn(C)c3=O)c(F)c2)c1O [Example 87, 1-(2,6-diethylphenyl)-5-{[3-fluoro-4-(1-methyl-2-oxo-1,2-dihydropyridin-3-yl)phenyl]methyl}-6-hydroxy-2-[1-(propan-2-yl)-1H-pyrazol-3-yl]-1,4-dihydropyrimidin-4-one]",0.01 to 10 nM
9,"CCc1cccc(CC)c1-n1c(-c2ccn(C)n2)nc(=O)c(Cc2ccc(-c3cccn(C)c3=O)cc2F)c1O [Example 88, 1-(2,6-diethylphenyl)-5-{[2-fluoro-4-(1-methyl-2-oxo-1,2-dihydropyridin-3-yl)phenyl]methyl}-6-hydroxy-2-(1-methyl-1H-pyrazol-3-yl)-1,4-dihydropyrimidin-4-one]",0.01 to 10 nM
10,"CCc1cccc(CC)c1-n1c(-c2ccn(C)n2)nc(=O)c(Cc2ccc(-c3ccc(F)cc3C(N)=O)cc2F)c1O [Example 89, 4′-{[1-(2,6-diethylphenyl)-6-hydroxy-2-(1-methyl-1H-pyrazol-3-yl)-4-oxo-1,4-dihydropyrimidin-5-yl]methyl}-3′,4-difluoro-[1,1′-biphenyl]-2-carboxamide]",0.01 to 10 nM
11,"CCc1cccc(CC)c1-n1c(-c2ccn(CC(C)C)n2)nc(=O)c(Cc2ccc(-c3cccn(C)c3=O)c(F)c2)c1O [Example 90, 1-(2,6-diethylphenyl)-5-{[3-fluoro-4-(1-methyl-2-oxo-1,2-dihydropyridin-3-yl)phenyl]methyl}-6-hydroxy-2-[1-(2-methylpropyl)-1H-pyrazol-3-yl]-1,4-dihydropyrimidin-4-one]",100 to 300 nM
12,"CCc1cccc(CC)c1-n1c(-c2ccn(CC(C)C)n2)nc(=O)c(Cc2ccc(-c3ccnc(F)c3C)c(F)c2)c1O [Example 91, 1-(2,6-diethylphenyl)-5-{[3-fluoro-4-(2-fluoro-3-methylpyridin-4-yl)phenyl]methyl}-6-hydroxy-2-[1-(2-methylpropyl)-1H-pyrazol-3-yl]-1,4-dihydropyrimidin-4-one]",100 to 300 nM
13,"CCc1cccc(CC)c1-n1c(-c2ccn(CC(C)C)n2)nc(=O)c(Cc2ccc(-c3ccc(F)cc3C(N)=O)c(F)c2)c1O [Example 92, 4′-{[1-(2,6-diethylphenyl)-6-hydroxy-2-[1-(2-methylpropyl)-1H-pyrazol-3-yl]-4-oxo-1,4-dihydropyrimidin-5-yl]methyl}-2′,4-difluoro-[1,1′-biphenyl]-2-carboxamide]",10 to 100 nM
14,"CCc1cccc(CC)c1-n1c(-c2ccn(C3CC3)n2)nc(=O)c(Cc2ccc(-c3cccn(C)c3=O)c(F)c2)c1O [Example 93, 2-(1-cyclopropyl-1H-pyrazol-3-yl)-1-(2,6-diethylphenyl)-5-{[3-fluoro-4-(1-methyl-2-oxo-1,2-dihydropyridin-3-yl)phenyl]methyl}-6-hydroxy-1,4-dihydropyrimidin-4-one]",0.01 to 10 nM
15,"CCc1cccc(CC)c1-n1c(-c2ccn(C3CC3)n2)nc(=O)c(Cc2ccc(-c3ccc(F)cc3C(N)=O)c(F)c2)c1O [Example 94, 4′-{[2-(1-cyclopropyl-1H-pyrazol-3-yl)-1-(2,6-diethylphenyl)-6-hydroxy-4-oxo-1,4-dihydropyrimidin-5-yl]methyl}-2′,4-difluoro-[1,1′-biphenyl]-2-carboxamide]",0.01 to 10 nM
16,"CCCCc1nc(=O)c(Cc2ccc(-c3cccnc3C)cc2)c(O)n1[C@@H](CC)c1cccc(C#N)c1 [Example 96, 3-[(1S)-1-(2-butyl-6-hydroxy-5-{[4-(2-methylpyridin-3-yl)phenyl]methyl}-4-oxo-1,4-dihydropyrimidin-1-yl)propyl]benzonitrile]",0.01 to 10 nM
17,"CCCCc1nc(=O)c(Cc2ccc(-c3ccc(F)nc3)cc2)c(O)n1[C@@H](CC)c1cccc(C#N)c1 [Example 97, 3-[(1S)-1-(2-butyl-5-{[4-(6-fluoropyridin-3-yl)phenyl]methyl}-6-hydroxy-4-oxo-1,4-dihydropyrimidin-1-yl)propyl]benzonitrile]",0.01 to 10 nM
18,"CCCCc1nc(=O)c(Cc2ccc(-c3ccncc3C)cc2)c(O)n1[C@@H](CC)c1cccc(C#N)c1 [Example 98, 3-[(1S)-1-(2-butyl-6-hydroxy-5-{[4-(3-methylpyridin-4-yl)phenyl]methyl}-4-oxo-1,4-dihydropyrimidin-1-yl)propyl]benzonitrile]",0.01 to 10 nM
19,"CCCCc1nc(=O)c(Cc2ccc(-c3ccnc(F)c3C)cc2)c(O)n1[C@@H](CC)c1cccc(C#N)c1 [Example 99, 3-[(1S)-1-(2-butyl-5-{[4-(2-fluoro-3-methylpyridin-4-yl)phenyl]methyl}-6-hydroxy-4-oxo-1,4-dihydropyrimidin-1-yl)propyl]benzonitrile]",0.01 to 10 nM
20,"CCCCc1nc(=O)c(Cc2ccc(-n3cc(Cl)ccc3=O)cc2)c(O)n1[C@@H](CC)c1cccc(C#N)c1 [Example 100, 3-[(1S)-1-(2-butyl-5-{[4-(5-chloro-2-oxo-1,2-dihydropyridin-1-yl)phenyl]methyl}-6-hydroxy-4-oxo-1-4-dihydropyrimidin-1-yl)propyl]benzonitrile]",0.01 to 10 nM
21,"CCCCc1nc(=O)c(Cc2ccc(C3CC3)cc2)c(O)n1[C@@H](CC)c1cccc(C#N)c1 [Example 101, 3-[(1S)-1-{2-butyl-5-[(4-cyclopropylphenyl)methyl]-6-hydroxy-4-oxo-1,4-dihydropyrimidin-1-yl}propyl]benzonitrile]",0.01 to 10 nM
22,"CCCCc1nc(=O)c(Cc2ccc(C3CC3)cc2)c(O)n1[C@@H](CC)c1cccc(C#N)c1 [Example 102, 3-[(1S)-1-{2-butyl-5-[(4-cyclopropylphenyl)methyl]-6-hydroxy-4-oxo-1,4-dihydropyrimidin-1-yl}propyl]benzonitrile]",10 to 100 nM
23,"CCCCc1nc(=O)c(Cc2ccc(-c3ccnc(F)c3C)cc2)c(O)n1[C@@H](CC)c1cccc(F)c1 [Example 103, 2-butyl-5-{[4-(2-fluoro-3-methylpyridin-4-yl)phenyl]methyl}-1-[(1S)-1-(3-fluorophenyl)propyl]-6-hydroxy-1,4-dihydropyrimidin-4-one]",0.01 to 10 nM
24,"CCCCc1nc(=O)c(Cc2ccc(-c3ccc(F)nc3C)cc2)c(O)n1[C@@H](CC)c1cccc(F)c1 [Example 104, 2-butyl-5-{[4-(6-fluoro-2-methylpyridin-3-yl)phenyl]methyl}-1-[(1S)-1-(3-fluorophenyl)propyl]-6-hydroxy-1,4-dihydropyrimidin-4-one]",0.01 to 10 nM

# Same assay, conditions: HEK293 cells stably expressing human APJ receptor; inhibition of forskolin-mediated cAMP production; read-out: Human APJ cAMP EC50 potency range
row,Structure (SMILES),EC50
1,"CCCCc1nc(=O)c(Cc2ccc(-c3ccc(F)nc3C)cc2)c(O)n1[C@@H](CC)c1cccc(C#N)c1 [Example 95, (S)-3-(1-(2-butyl-5-(4-(6-fluoro-2-methylpyridin-3-yl)benzyl)-6-hydroxy-4-oxopyrimidin-1(4H)-yl)propyl)benzonitrile]",0.01 to 10 nM
